In PubChem BioAssay (NCI):
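GI50 = concentration required for 50% inhibition of growth. TGI marks complete inhibition of growth.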

Columns and labels:
Assay in all cases: inhibition of tumour cell growth, NCI panel, 384-well format
BT-549 breast = tested on: BT-549 breast
K-562 leukemia = tested on: K-562 leukemia
CCRF-CEM leukemia = tested on: CCRF-CEM leukemia
MCF7 breast = tested on: MCF7 breast
NCI-H460 NSCLC = tested on: NCI-H460 NSCLC
HS 578T breast = tested on: HS 578T breast
A498 renal = tested on: A498 renal
SF-268 CNS = tested on: SF-268 CNS
OVCAR-5 ovarian = tested on: OVCAR-5 ovarian
DU-145 prostate = tested on: DU-145 prostate
EKVX NSCLC = tested on: EKVX NSCLC
U251 glioblastoma = tested on: U251 glioblastoma
HL-60(TB) leukemia = tested on: HL-60(TB) leukemia
UACC-257 melanoma = tested on: UACC-257 melanoma
HCT-116 colon = tested on: HCT-116 colon
SK-OV-3 ovarian = tested on: SK-OV-3 ovarian
NCI-H226 lung = tested on: NCI-H226 lung
RPMI-8226 leukemia = tested on: RPMI-8226 leukemia
MDA-MB-468 breast = tested on: MDA-MB-468 breast
OVCAR-3 ovarian = tested on: OVCAR-3 ovarian
M14 melanoma = tested on: M14 melanoma
MOLT-4 leukemia = tested on: MOLT-4 leukemia
SK-MEL-5 melanoma = tested on: SK-MEL-5 melanoma
SK-MEL-2 melanoma = tested on: SK-MEL-2 melanoma
IGROV1 ovarian = tested on: IGROV1 ovarian
HOP-62 NSCLC = tested on: HOP-62 NSCLC
UACC-62 melanoma = tested on: UACC-62 melanoma
COLO 205 colon = tested on: COLO 205 colon
NCI-H322M lung = tested on: NCI-H322M lung
ACHN renal = tested on: ACHN renal
SW-620 colon = tested on: SW-620 colon
SNB-75 CNS = tested on: SNB-75 CNS
SF-295 CNS = tested on: SF-295 CNS
NCI-H522 lung = tested on: NCI-H522 lung
NCI-H23 lung = tested on: NCI-H23 lung
PC-3 prostate = tested on: PC-3 prostate
HCT-15 colon = tested on: HCT-15 colon
SF-539 CNS = tested on: SF-539 CNS
SNB-19 CNS = tested on: SNB-19 CNS
MDA-MB-231 breast = tested on: MDA-MB-231 breast
MDA-MB-435 melanoma = tested on: MDA-MB-435 melanoma
SK-MEL-28 melanoma = tested on: SK-MEL-28 melanoma
786-0 renal = tested on: 786-0 renal
KM12 colon = tested on: KM12 colon
LOX IMVI melanoma = tested on: LOX IMVI melanoma
T-47D breast = tested on: T-47D breast
HT29 colon = tested on: HT29 colon
RXF 393 renal = tested on: RXF 393 renal
SR leukemia = tested on: SR leukemia
A549 NSCLC = tested on: A549 NSCLC
OVCAR-4 ovarian = tested on: OVCAR-4 ovarian
HCC-2998 colon = tested on: HCC-2998 colon
MALME-3M melanoma = tested on: MALME-3M melanoma
NCI/ADR-RES ovarian = tested on: NCI/ADR-RES ovarian
TK-10 renal = tested on: TK-10 renal
UO-31 renal = tested on: UO-31 renal
CAKI-1 renal = tested on: CAKI-1 renal
SN12C renal = tested on: SN12C renal
HOP-92 NSCLC = tested on: HOP-92 NSCLC

Compound: COc1nccc(-c2c(-c3ccc(F)cc3)ncn2C2CCC(O)CC2)n1 (stereo not drawn)
- GI50 (BT-549 breast): > 100 µM
- TGI (BT-549 breast): > 100 µM
- GI50 (K-562 leukemia): 36.1 µM
- TGI (K-562 leukemia): > 100 µM
- GI50 (CCRF-CEM leukemia): 50 µM
- TGI (CCRF-CEM leukemia): > 100 µM
- GI50 (MCF7 breast): 36.2 µM
- TGI (MCF7 breast): > 100 µM
- GI50 (NCI-H460 NSCLC): 71.6 µM
- TGI (NCI-H460 NSCLC): > 100 µM
- GI50 (HS 578T breast): > 100 µM
- TGI (HS 578T breast): > 100 µM
- GI50 (A498 renal): > 100 µM
- TGI (A498 renal): > 100 µM
- GI50 (SF-268 CNS): > 100 µM
- TGI (SF-268 CNS): > 100 µM
- GI50 (OVCAR-5 ovarian): > 100 µM
- TGI (OVCAR-5 ovarian): > 100 µM
- GI50 (DU-145 prostate): > 100 µM
- TGI (DU-145 prostate): > 100 µM
- GI50 (EKVX NSCLC): > 100 µM
- TGI (EKVX NSCLC): > 100 µM
- GI50 (U251 glioblastoma): > 100 µM
- TGI (U251 glioblastoma): > 100 µM
- GI50 (HL-60(TB) leukemia): 77 µM
- TGI (HL-60(TB) leukemia): > 100 µM
- GI50 (UACC-257 melanoma): > 100 µM
- TGI (UACC-257 melanoma): > 100 µM
- GI50 (HCT-116 colon): > 100 µM
- TGI (HCT-116 colon): > 100 µM
- GI50 (SK-OV-3 ovarian): 62.5 µM
- TGI (SK-OV-3 ovarian): > 100 µM
- GI50 (NCI-H226 lung): 91.2 µM
- TGI (NCI-H226 lung): > 100 µM
- GI50 (RPMI-8226 leukemia): 90.1 µM
- TGI (RPMI-8226 leukemia): > 100 µM
- GI50 (MDA-MB-468 breast): 13.2 µM
- TGI (MDA-MB-468 breast): > 100 µM
- GI50 (OVCAR-3 ovarian): > 100 µM
- TGI (OVCAR-3 ovarian): > 100 µM
- GI50 (M14 melanoma): > 100 µM
- TGI (M14 melanoma): > 100 µM
- GI50 (MOLT-4 leukemia): 29.5 µM
- TGI (MOLT-4 leukemia): > 100 µM
- GI50 (SK-MEL-5 melanoma): 90.3 µM
- TGI (SK-MEL-5 melanoma): > 100 µM
- GI50 (SK-MEL-2 melanoma): > 100 µM
- TGI (SK-MEL-2 melanoma): > 100 µM
- GI50 (IGROV1 ovarian): 38.5 µM
- TGI (IGROV1 ovarian): > 100 µM
- GI50 (HOP-62 NSCLC): > 100 µM
- TGI (HOP-62 NSCLC): > 100 µM
- GI50 (UACC-62 melanoma): > 100 µM
- TGI (UACC-62 melanoma): > 100 µM
- GI50 (COLO 205 colon): > 100 µM
- TGI (COLO 205 colon): > 100 µM
- GI50 (NCI-H322M lung): > 100 µM
- TGI (NCI-H322M lung): > 100 µM
- GI50 (ACHN renal): 36.3 µM
- TGI (ACHN renal): > 100 µM
- GI50 (SW-620 colon): > 100 µM
- TGI (SW-620 colon): > 100 µM
- GI50 (SNB-75 CNS): > 100 µM
- TGI (SNB-75 CNS): > 100 µM
- GI50 (SF-295 CNS): > 100 µM
- TGI (SF-295 CNS): > 100 µM
- GI50 (NCI-H522 lung): 22.6 µM
- TGI (NCI-H522 lung): 93.5 µM
- GI50 (NCI-H23 lung): > 100 µM
- TGI (NCI-H23 lung): > 100 µM
- GI50 (PC-3 prostate): > 100 µM
- TGI (PC-3 prostate): > 100 µM
- GI50 (HCT-15 colon): 58.7 µM
- TGI (HCT-15 colon): > 100 µM
- GI50 (SF-539 CNS): > 100 µM
- TGI (SF-539 CNS): > 100 µM
- GI50 (SNB-19 CNS): > 100 µM
- TGI (SNB-19 CNS): > 100 µM
- GI50 (MDA-MB-231 breast): > 100 µM
- TGI (MDA-MB-231 breast): > 100 µM
- GI50 (MDA-MB-435 melanoma): > 100 µM
- TGI (MDA-MB-435 melanoma): > 100 µM
- GI50 (SK-MEL-28 melanoma): > 100 µM
- TGI (SK-MEL-28 melanoma): > 100 µM
- GI50 ([…]-0 renal): 69.8 µM
- TGI (786-0 renal): > 100 µM
- GI50 (KM12 colon): > 100 µM
- TGI (KM12 colon): > 100 µM
- GI50 (LOX IMVI melanoma): > 100 µM
- TGI (LOX IMVI melanoma): > 100 µM
- GI50 (T-47D breast): > 100 µM
- TGI (T-47D breast): > 100 µM
- GI50 (HT29 colon): 46 µM
- TGI (HT29 colon): > 100 µM
- GI50 (RXF 393 renal): > 100 µM
- TGI (RXF 393 renal): > 100 µM
- GI50 (SR leukemia): 31.6 µM
- TGI (SR leukemia): > 100 µM
- GI50 (A549 NSCLC): 39.2 µM
- TGI (A549 NSCLC): > 100 µM
- GI50 (OVCAR-4 ovarian): > 100 µM
- TGI (OVCAR-4 ovarian): > 100 µM
- GI50 (HCC-2998 colon): > 100 µM
- TGI (HCC-2998 colon): > 100 µM
- GI50 (MALME-3M melanoma): > 100 µM
- TGI (MALME-3M melanoma): > 100 µM
- GI50 (NCI/ADR-RES ovarian): > 100 µM
- TGI (NCI/ADR-RES ovarian): > 100 µM
- GI50 (TK-10 renal): 37.4 µM
- TGI (TK-10 renal): > 100 µM
- GI50 (UO-31 renal): 31.4 µM
- TGI (UO-31 renal): > 100 µM
- GI50 (CAKI-1 renal): 31.7 µM
- TGI (CAKI-1 renal): > 100 µM
- GI50 (SN12C renal): > 100 µM
- TGI (SN12C renal): > 100 µM
- GI50 (HOP-92 NSCLC): > 100 µM
- TGI (HOP-92 NSCLC): > 100 µM
